Data on 23 molecules can be found in patent publication US10316017B2, “COT modulators and methods of use thereof” (Gilead Sciences, Inc., priority 2015, dated 2019).

Test [1] has as its target T1, human Cot catalytic domain (30-397 amino acids) (Homo sapiens, UniProt P41279).
T1 construct: Purified recombinant human Cot catalytic domain (30-397 amino acids) was purchased from Cama Biosciences; purchased Cama Biosciences (so in the source)
Nature of the test: High Throughput Cot Biochemical Assay (KinEASE TR-FRET). As to conditions: read-out: IC50 HTRF. The procedure, abridged: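 TR-FRET readout: Eu-labeled phospho-specific antibody binds XL665-tagged STK3 peptide after phosphorylation by Cot (aa 30-397, 5 nM). Conditions: 400 μM ATP, 1 μM peptide, MOPS pH 7.0 buffer with MgOAc, DTT, BSA, NP-40, glycerol; 0.1% DMSO.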

For test [2], the system named is TNFα production in LPS-stimulated human monocytes. The test is described as follows: Cot Monocyte TNFα Cell Based Assay. As to conditions: Homo sapiens, Monocyte, TNFα in LPS-stimulated human monocytes; read-out: EC50 TNF. Summed up:
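TR-FRET read-out of total secreted TNFα, normalized as % control (unstimulated = 0%, LPS-stimulated = 100%). Cells (5,000/well) were exposed to compound 1 h at 37 °C, then to 50 pg/ml LPS for a further 4 h.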

Setting [3] is: Cot KinEASE TR-FRET (HTRF) biochemical assay, 400 μM ATP.
Setting [4] is: Cot biochemical HTRF (KinEASE TR-FRET) assay.

Where two headings read alike, the source gives them in different places.

T1 sequence (P41279 30-397): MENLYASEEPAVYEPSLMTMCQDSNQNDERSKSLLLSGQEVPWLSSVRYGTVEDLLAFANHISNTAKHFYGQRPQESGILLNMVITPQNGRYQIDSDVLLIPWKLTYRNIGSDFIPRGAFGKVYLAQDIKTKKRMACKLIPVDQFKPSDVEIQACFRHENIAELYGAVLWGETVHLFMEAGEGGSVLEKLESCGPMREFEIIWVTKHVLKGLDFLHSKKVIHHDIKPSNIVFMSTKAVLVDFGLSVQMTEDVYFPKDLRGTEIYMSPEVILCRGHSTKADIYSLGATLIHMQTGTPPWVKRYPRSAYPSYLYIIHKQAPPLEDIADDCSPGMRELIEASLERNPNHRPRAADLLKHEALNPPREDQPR

`N#Cc1cnc2c(Cl)cc(N[C@@H](c3ccc(F)cc3)c3c[nH]nn3)cc2c1NCc1cscn1` [Example 401, (S)-8-chloro-6-(((4-fluorophenyl)(1H-1,2,3-triazol-4-yl)methyl)amino)-4-((thiazol-4-ylmethyl)amino)quinoline-3-carbonitrile]: the IC50 in test [1] (setting [3]) came to 758 nM. Further, in test [2], the EC50 was 4790 nM.

Regarding `N#Cc1cnc2c(Cl)cc(N[C@@H](c3ccc(F)cc3)c3c[nH]nn3)cc2c1NCc1nccs1` [Example 402, (S)-8-chloro-6-(((4-fluorophenyl)(1H-1,2,3-triazol-4-yl)methyl)amino)-4-((thiazol-2-ylmethyl)amino)quinoline-3-carbonitrile], in test [1] (setting [3]), the half-maximal inhibitory concentration (IC50) came to 353 nM. Moreover, the EC50 in test [2] stood at 3650 nM.

As for `CC1(n2cc([C@@H](Nc3cc(Cl)c4ncc(C#N)c(Nc5cnc(F)c(F)c5)c4c3)c3ccc(F)cc3)nn2)COC1` [Example 403, (S)-8-chloro-4-((5,6-difluoropyridin-3-yl)amino)-6-(((4-fluorophenyl) (1-(3-methyloxetan-3-yl)-1H-1,2,3-triazol-4-yl)methyl)amino)quinoline-3-carbonitrile], in test [1] (setting [3]), the IC50 came to 15 nM. Besides, the concentration giving a half-maximal response (EC50) in test [2] is 532 nM.

`N#Cc1cnc2c(Cl)cc(N[C@H](c3c[nH]nn3)c3ccccc3C(F)F)cc2c1Nc1cnc(F)c(F)c1` [Example 404, (S)-8-chloro-6-(((2-(difluoromethyl)phenyl) (1H-1,2,3-triazol-4-yl)methyl)amino)-4-((5,6-difluoropyridin-3-yl)amino)quinoline-3-carbonitrile]: in test [1] (setting [4]), the 50% inhibitory concentration (IC50) was found to be 34 nM. Besides, the EC50 in test [2] was 570 nM.

As to `N#Cc1cnc2c(Cl)cc(N[C@@H](c3ccc(F)cc3)c3cn(CC4(F)COC4)nn3)cc2c1Nc1cnc(F)c(F)c1` [Example 405, (S)-8-chloro-4-((5,6-difluoropyridin-3-yl)amino)-6-(((1-((3-fluorooxetan-3-yl)methyl)-1H-1,2,3-triazol-4-yl)(4-fluorophenyl)methyl)amino) quinoline-3-carbonitrile], the IC50 in test [1] (setting [4]) is 69 nM. Moreover, the concentration for a half-maximal effect (EC50) in test [2] is 2300 nM.

As to `C[C@@H](n1cc([C@@H](Nc2cc(Cl)c3ncc(C#N)c(Nc4cnc(F)c(F)c4)c3c2)c2ccc(F)cc2)nn1)C(F)(F)F` [Example 406, 8-chloro-4-((5,6-difluoropyridin-3-yl)amino)-6-(((S)-(4-fluorophenyl)(1-((R)-1,1,1-trifluoropropan-2-yl)-1H-1,2,3-triazol-4-yl)methyl)amino)quinoline-3-carbonitrile], the IC50 in test [1] (setting [4]) was determined as 212 nM. The concentration giving a half-maximal response (EC50) in test [2] worked out at 4430 nM.

As for `CC(C(F)F)n1cc([C@@H](Nc2cc(Cl)c3ncc(C#N)c(Nc4cnc(F)c(F)c4)c3c2)c2ccc(F)cc2)nn1` (stereo partly drawn) [Example 407, 8-chloro-6-(((1S)-(1-(1,1-difluoropropan-2-yl)-1H-1,2,3-triazol-4-yl)(4-fluorophenyl)methyl)amino)-4-((5,6-difluoropyridin-3-yl)amino)quinoline-3-carbonitrile], in test [1] (setting [4]), the concentration for half-maximal inhibition (IC50) stood at 47 nM. Besides, the half-maximal effective concentration (EC50) in test [2] was 1530 nM.

As to `N#Cc1cnc2c(Cl)cc(N[C@@H](c3ccc(F)cc3)c3cn(-c4ccccc4)nn3)cc2c1Nc1cnc(F)c(F)c1` [Example 408, (S)-8-chloro-4-((5,6-difluoropyridin-3-yl)amino)-6-(((4-fluorophenyl) (1-phenyl-1H-1,2,3-triazol-4-yl)methyl)amino)quinoline-3-carbonitrile], in test [1] (setting [4]), the concentration for half-maximal inhibition (IC50) amounted to 41 nM. Moreover, in test [2], the EC50 came out at 779 nM.

`N#Cc1cnc2c(Cl)cc(N[C@@H](c3ccc(F)cc3)c3cn(CC(F)F)nn3)cc2c1Nc1cnc(F)c(F)c1` [Example 409, (S)-8-chloro-6-(((1-(2,2-difluoroethyl)-1H-1,2,3-triazol-4-yl)(4-fluorophenyl)methyl)amino)-4-((5,6-difluoropyridin-3-yl)amino)quinoline-3-carbonitrile]: the half-inhibitory concentration (IC50) in test [1] (setting [4]) amounted to 23 nM. Moreover, the EC50 in test [2] was determined as 776 nM.

On to `N#CCn1cc([C@@H](Nc2cc(Cl)c3ncc(C#N)c(Nc4cnc(F)c(F)c4)c3c2)c2ccc(F)cc2)nn1` [Example 410, (S)-8-chloro-6-(((1-(cyanomethyl)-1H-1,2,3-triazol-4-yl)(4-fluorophenyl)methyl)amino)-4-((5,6-difluoropyridin-3-yl)amino)quinoline-3-carbonitrile], for which the concentration for half-maximal inhibition (IC50) in test [1] (setting [4]) turned out to be 30 nM. For the same molecule, the EC50 in test [2] turned out to be 723 nM.

Regarding `CC(C)(C)Cn1cc([C@@H](Nc2cc(Cl)c3ncc(C#N)c(Nc4cnc(F)c(F)c4)c3c2)c2ccc(F)cc2)nn1` [Example 411, (S)-8-chloro-4-((5,6-difluoropyridin-3-yl)amino)-6-(((4-fluorophenyl)(1-neopentyl-1H-1,2,3-triazol-4-yl)methyl)amino)quinoline-3-carbonitrile], the IC50 in test [1] (setting [4]) stood at 111 nM. The concentration giving a half-maximal response (EC50) in test [2] stood at 3410 nM.

In the case of `CC1(Cn2cc([C@@H](Nc3cc(Cl)c4ncc(C#N)c(Nc5cnc(F)c(F)c5)c4c3)c3ccc(F)cc3)nn2)CC1` [Example 412, (S)-8-chloro-4-((5,6-difluoropyridin-3-yl)amino)-6-(((4-fluorophenyl)(1-((1-methylcyclopropyl)methyl)-1H-1,2,3-triazol-4-yl)methyl)amino)quinoline-3-carbonitrile], the IC50 in test [1] (setting [4]) turned out to be 50 nM. For the same molecule, the 50% effective concentration (EC50) in test [2] amounted to 2220 nM.

Take `CC1(Cn2cc([C@@H](Nc3cc(Cl)c4ncc(C#N)c(Nc5cnc(F)c(F)c5)c4c3)c3ccc(F)cc3)nn2)CCC1` [Example 413]: in test [1] (setting [4]), the IC50 came to 93 nM. The concentration giving a half-maximal response (EC50) in test [2] was 2750 nM.

`N#Cc1cnc2c(Cl)cc(N[C@@H](c3ccc(F)cc3)c3cn(C4CC4)nn3)cc2c1Nc1cnc(F)c(Cl)c1` [Example 414, (S)-8-chloro-4-((5-chloro-6-fluoropyridin-3-yl)amino)-6-(((1-cyclopropyl-1H-1,2,3-triazol-4-yl)(4-fluorophenyl)methyl)amino) quinoline-3-carbonitrile]: the IC50 in test [1] (setting [4]) came to 4 nM. For the same molecule, the EC50 in test [2] worked out at 140 nM.

As to `[2H][C@](Nc1cc(Cl)c2ncc(C#N)c(N[C@H](CC)c3ccccc3)c2c1)(c1ccc(F)cc1)c1c[nH]nn1` [Example 415, 8-chloro-6-(((S)-(4-fluorophenyl)(1H-1,2,3-triazol-4-yl)methyl-d)amino)-4-(((R)-1-phenylpropyl)amino)quinoline-3-carbonitrile], the IC50 in test [1] (setting [4]) came to 9 nM. Besides, in test [2], the half-maximal effective concentration (EC50) was found to be 409 nM.

Take `CC[C@@H](Nc1c(C#N)cnc2c(Cl)cc(N[C@@H](c3ccc(F)cc3)c3cn(C)nn3)cc12)c1ccccc1` [Example 416, 8-chloro-6-(((S)-(4-fluorophenyl)(1-methyl-1H-1,2,3-triazol-4-yl)methyl)amino)-4-(((R)-1-phenylpropyl)amino) quinoline-3-carbonitrile]: the concentration for half-maximal inhibition (IC50) in test [1] (setting [4]) is 6 nM. Also, the EC50 in test [2] amounted to 209 nM.

For `N#Cc1cnc2c(Cl)cc(N[C@@H](c3ccc(F)cc3)c3cn(C4(C(F)(F)F)CC4)nn3)cc2c1Nc1cnc(F)c(F)c1` [Example 417, (S)-8-chloro-4-((5,6-difluoropyridin-3-yl)amino)-6-(((4-fluorophenyl)(1-(1-(trifluoromethyl)cyclopropyl)-1H-1,2,3-triazol-4-yl)methyl)amino)quinoline-3-carbonitrile], the concentration for half-maximal inhibition (IC50) in test [1] (setting [4]) worked out at 74 nM. For the same molecule, the concentration for a half-maximal effect (EC50) in test [2] came to 1930 nM.

For the molecule `N#Cc1cnc2c(Cl)cc(N[C@@H](c3ccc(F)cc3)c3c[nH]nn3)cc2c1NCc1cccs1` [Example 418, (S)-8-chloro-6-(((4-fluorophenyl)(1H-1,2,3-triazol-4-yl)methyl)amino)-4-((thiophen-2-ylmethyl)amino)quinoline-3-carbonitrile], the IC50 in test [1] (setting [4]) stood at 361 nM. In addition, in test [2], the EC50 was 4170 nM.

Consider `N#Cc1cnc2c(Cl)cc(N[C@@H](c3ccc(F)cc3)c3c[nH]nn3)cc2c1NCc1ccsc1` [Example 419, (S)-8-chloro-6-(((4-fluorophenyl)(1H-1,2,3-triazol-4-yl)methyl)amino)-4-((thiophen-3-ylmethyl)amino)quinoline-3-carbonitrile], for which the IC50 in test [1] (setting [4]) worked out at 392 nM. Besides, the EC50 in test [2] stood at 4300 nM.

For `N#Cc1cnc2c(Cl)cc(N[C@@H](c3ccc(F)cc3)c3c[nH]nn3)cc2c1NCC1CCOC1` (stereo partly drawn) [Example 420, 8-chloro-6-(((S)-(4-fluorophenyl)(1H-1,2,3-triazol-4-yl)methyl)amino)-4-(((tetrahydrofuran-3-yl)methyl)amino)quinoline-3-carbonitrile], the 50% inhibitory concentration (IC50) in test [1] (setting [4]) is 191 nM. Also, the EC50 in test [2] was 5160 nM.

On to `N#Cc1cnc2c(Cl)cc(N[C@@H](c3ccc(F)cc3)c3c[nH]nn3)cc2c1NCC1COC1` [Example 421, (S)-8-chloro-6-(((4-fluorophenyl)(1H-1,2,3-triazol-4-yl)methyl)amino)-4-((oxetan-3-ylmethyl)amino)quinoline-3-carbonitrile], for which, in test [1] (setting [4]), the concentration for half-maximal inhibition (IC50) turned out to be 1490 nM. Also, in test [2], the 50% effective concentration (EC50) was over 10000 nM.

For `N#Cc1cnc2c(Cl)cc(N[C@H](c3c[nH]nn3)c3ccc(F)cc3Cl)cc2c1Nc1cnc(F)c(F)c1` [Example 422, (S)-8-chloro-6-(((2-chloro-4-fluorophenyl)(1H-1,2,3-triazol-4-yl)methyl)amino)-4-((5,6-difluoropyridin-3-yl)amino)quinoline-3-carbonitrile], the IC50 in test [1] (setting [4]) was 48 nM. Also, in test [2], the EC50 came to 1350 nM.

As for `N#Cc1ccc([C@H](Nc2cc(Cl)c3ncc(C#N)c(Nc4cnc(F)c(F)c4)c3c2)c2c[nH]nn2)cc1` [Example 423, (S)-8-chloro-6-(((4-cyanophenyl)(1H-1,2,3-triazol-4-yl)methyl)amino)-4-((5,6-difluoropyridin-3-yl)amino)quinoline-3-carbonitrile], the half-inhibitory concentration (IC50) in test [1] (setting [4]) is 17 nM. Further, the EC50 in test [2] came out at 1260 nM.
